Consider one substance from patent US20200289482A1, “CYSTIC FIBROSIS TRANSMEMBRANE CONDUCTANCE REGULATOR MODULATORS FOR TREATING AUTOSOMAL DOMINANT POLYCYSTIC KIDNEY DISEASE” (The Johns Hopkins University, priority 2017, published 2020).

Data set [1] concerns kidneys of Pkd1^fl/fl; Pax8^rtTA; TetO-cre mice. In words: Ki67 staining of kidney sections (proliferation). The data set is classed as in vivo, mouse. To be noted: VX-809 30 mg/kg to mice vs DMSO-treated mice; PN21 kidney sections. An excerpt: FIG. 3A, FIG. 3B, FIG. 3C, and FIG. 3D show cell proliferation is reduced by VX-809. (FIG. 3A-FIG. 3B) Proliferation in kidneys of Pkd1^fl/fl; Pax8^rtTA; TetO-cre mice. Representative images of Ki67 (a cellular marker for proliferation) staining of PN21 kidney sections from DMSO- and VX-809-treated mice. Arrows indicate Ki67-positive cells. Pictures were acquired with a Zeiss microscope equipped with 20× objective. (FIG. 3C) Summary data for Ki67-positive cells. Columns represent averages±standard errors of DMSO (vehicle)-treated (n=3) and VX-809-treated (n=3) mice. Statistical analysis was performed using a two-tailed Student's t test. (FIG. 3D) Proliferation in PN cells. PN cells were treated with VX-809 or DMSO). The bromodeoxyuridine (BrdU) concentration in the cells was measured by using a BrdU cell proliferation assay kit (Millipore Sigma #2750) according to the manufacturer's protocol. Columns represent averages±SEs of the OD of BrdU at 450/550 […]. Data were analyzed using Student's t-test, with n=5-7. Methods were described previously (62). […]; **P<0.01;
A hallmark of the cysts in ADPKD is an increase in proliferation in response to cAMP (23). Therefore, it was determined whether VX-809 would affect proliferation.

Another data set has as its system Hsp70. Briefly: Cycloheximide chase, disappearance of Hsp70 in PN cells. The format is cell-based, mouse. Particulars: VX-809 10 μM with cycloheximide 25 μM. On the procedure:
FIG. 9A, FIG. 9B, FIG. 9C, FIG. 9D, FIG. 9E, FIG. 9F, FIG. 9G, and FIG. 9H show Hsp27, HSp70, and Hsp90 expression in PN cells treated with VX-809 and/or cycloheximide. (A) Pkd1 null (PN) cells were treated with VX-809 (10 μM) and/or with cycloheximide (25 μM) for indicated time points before being harvested for the assay. (FIG. 9A) Western blot showing expression of Hsp27, Hsp70, and Hsp90 in VX-809-(16 h), cycloheximide-treated, or control PN cells. ((FIG. 9B. (FIG. 9C, and (FIG. 9D) Columns represent averages±standard errors of Hsp27, Hsp70, and Hsp90 expression in cells treated with VX-809 and/or cycloheximide. ((FIG. 9E) Western blot showing expression of Hsp27, Hsp70, and Hsp90 in PN cells treated with VX-809+cycloheximide or control PN cells. ((FIG. 9F, (FIG. 9G, and (FIG. 9H) Columns represent averages±standard errors of Hsp27, Hsp70, and Hsp90 expression in cells treated only with cycloheximide or in control PN cells. Data were analyzed by non-parametric t-test. The experiments were repeated 3-5 times. *P<0.05, **P<0.01;
To gain more insight into the mechanism whereby VX-809 alters Hsp protein levels, translation was inhibited by using cycloheximide (35) and the disappearance of the three Hsps was monitored. […] Hsp 90 was reduced by approximately 25%, and Hsp27 was unchanged.

Another data set concerns PC2. In words: Western blot of PC2 expression. The format is cell-based, mouse. Particulars: PN cells, endogenous PC2. On the procedure:
FIG. 6A and FIG. 6B show PC2 expression is unchanged by VX-809. (FIG. 6A) Western blot showing expression of PC2 in treated or control cells. (FIG. 6B) Columns represent the means±SEM of the PC2 expression. The data were analyzed by non-parametric t-test. The experiment was repeated six (control) or seven times;
PC2 is a 968-amino acid protein with an approximate molecular weight of 100 kDa in its monomeric form. To determine whether VX-809 affects PC2 protein expression, western blot experiments were conducted on PN cells to determine the resting levels of endogenous PC2.
In general terms: In western blotting, separated proteins are transferred to a membrane and probed.

The test system of data set [2] is Pkd1^fl/fl; Pax8^rtTA; TetO-cre mice. Briefly: Cyst growth and renal function in Pkd1 knockout mice treated with VX-809. The data set is classed as in vivo, mouse. On the procedure: (FIG. 1A) Representative images of postnatal day (PND) 21 kidney sections from DMSO- and VX-809-treated mice. Significant reductions occurred in (FIG. 1B) cyst index, (FIG. 1C) kidney weight, and (FIG. 1D) kidney-to-body weight ratio. […] Methods: The total kidney area and total cystic area were measured with ImageJ (provided by NIH). Cystic index=100× (total cystic area/total kidney area) and is expressed as a percentage. Columns represent means±standard error (SEM) for DMSO (vehicle)-treated (n=4-5) and VX-809 mice. *P<0.05; **P<0.01 (for all graphs). Statistical analysis was performed using an unpaired two-tailed Student's t-test;
When treated with doxycycline, these mice express Cre, causing knockout of PC1 (18). […] The dosage of VX-809 injected was lower than the human pediatric dose, which is 500 mg of Lumacaftor per day; the adult dose is 800 mg/day.
Mouse strain and treatment. Pkd1^fl/fl; Pax8^rtTA; TetO-cre mice on a C57BL/6 background (61) were provided by the Baltimore PKD Center. Mice of both sexes were used in this study. Mice were injected IP with doxycycline (Sigma, # D9891) ([…]) on postnatal day 11 (PND11), PND12, and PND13 to produce very rapid and aggressive cyst growth (18,19). On PND21, the mice were euthanized.

Setting [3] is: VX-809 30 mg/kg IP daily PND10 to PND20 vs DMSO-treated mice.
The mark [4] stands for this setting: VX-809 30 mg/kg IP daily PND10 to PND20 vs control mice.

With lumacaftor [VX-809], the “cell proliferation (Ki67-positive cells)” value in data set [1] is “significantly inhibit cell proliferation”. Besides, in the data set with Hsp70, the “Hsp70 levels over the 8-h period relative to time 0” value was “approximately half the level observed at time 0”. Moreover, the PC2 expression entry in the data set with PC2 is “no effect on PC2 expression”. The overall body weight result in data set [2] (VX-809 30 mg/kg IP daily PND10 to PND20, treated vs untreated groups) is given as “no difference in overall body weight”. In addition, in data set [2] (setting [3]), the “blood urea nitrogen (BUN)” value is on record as “lowered blood urea nitrogen (BUN)” and the creatinine entry is on record as “lowered”. Further, the “less cyst growth (cyst index)” value in data set [2] (VX-809 30 mg/kg IP daily PND10 to PND20 vs DMSO, doxycycline-induced cysts, PND21) was approximately 60.4%. Besides, in data set [2] (setting [4]), the Kidney weight entry is “lower than those of the control mice” and the kidney-to-body weight ratio result is on record as “lower than those of the control mice”.
